Reference: paper PMC7163368 (British Journal of Clinical Pharmacology, 2020)

What was measured:
[1] = Safety and tolerability: adverse events, laboratory, ECG, physical examination; assay type: in vivo, human
[2] = 28‐day toxicity study in rats; cited from earlier work
[3] = s.c. single dose 120 mg (n = 5)

In the case of O=C(CN[C@@H]1CCNC1)N1CCC[C@H]1B(O)O [dutogliptin], the “Hematoma, related: subjects with at least 1 AE” value (“Hematoma, related: subjects” below) ([1]; s.c. multidose 120 mg (n = 5)) is reported as 0, the “Induration, related: subjects with at least 1 AE” value (“Induration, related: subjects” for short) ([1]; s.c. multidose 120 mg (n = 5)) is reported as 3 (60%) and the “Local AEs, related: subjects with at least 1 AE” value ([1]; s.c. multidose 120 mg (n = 5)) is reported as 5 (100%). For the same compound, the “Other local AEs, related: subjects with at least 1 AE” value (“Other local AEs, related: subjects” below) ([1]; s.c. multidose 120 mg (n = 5)) was 0, the “Other systemic AEs, related: subjects with at least 1 AE” value (“Other systemic AEs, related: subjects” below) ([1]; s.c. multidose 120 mg (n = 5)) was 0 and the “Pain with touching, related: subjects with at least 1 AE” value (shortened to “Pain with touching, related: subjects”) ([1]; s.c. multidose 120 mg (n = 5)) was 2 (40%). For the same compound, the “Pain without touching, related: subjects with at least 1 AE” value (“Pain without touching, related: subjects” for short) ([1]; s.c. multidose 120 mg (n = 5)) was 2 (40%), the “Swelling, related: subjects with at least 1 AE” value (shortened to “Swelling, related: subjects”) ([1]; s.c. multidose 120 mg (n = 5)) was 0 and the “Systemic AEs, related: subjects with at least 1 AE” value ([1]; s.c. multidose 120 mg (n = 5)) was 0. The “All AEs, related: subjects with at least 1 AE” value (shortened to “All AEs, related: subjects”) ([1]; s.c. single dose 30 mg (n = 5)) was 5 (100%), the “Erythema, related: subjects with at least 1 AE” value (from here on “Erythema, related: subjects”) ([1]; s.c. single dose 30 mg (n = 5)) was 5 (100%) and the “Fatigue, related: subjects with at least 1 AE” value (from here on “Fatigue, related: subjects”) ([1]; s.c. single dose 30 mg (n = 5)) was 0. For the same compound, the “Headache, related: subjects with at least 1 AE” value (“Headache, related: subjects” for short) ([1]; s.c. single dose 30 mg (n = 5)) was 0, the “Hematoma, related: subjects” value ([1]; s.c. single dose 30 mg (n = 5)) was 0 and the “Induration, related: subjects” value ([1]; s.c. single dose 30 mg (n = 5)) was 0. For the same compound, the “Local AEs, related: subjects with at least 1 AE” value ([1]; s.c. single dose 30 mg (n = 5)) was 5 (100%), the “Other local AEs, related: subjects” value ([1]; s.c. single dose 30 mg (n = 5)) was 0 and the “Other systemic AEs, related: subjects” value ([1]; s.c. single dose 30 mg (n = 5)) was 0. The “Pain with touching, related: subjects” value ([1]; s.c. single dose 30 mg (n = 5)) was 1 (20%), the “Pain without touching, related: subjects” value ([1]; s.c. single dose 30 mg (n = 5)) was 0 and the “Swelling, related: subjects” value ([1]; s.c. single dose 30 mg (n = 5)) was 0. The “Systemic AEs, related: subjects with at least 1 AE” value ([1]; s.c. single dose 30 mg (n = 5)) was 0, the “All AEs, related: subjects” value ([1]; s.c. single dose 60 mg (n = 5)) was 5 (100%) and the “Erythema, related: subjects” value ([1]; s.c. single dose 60 mg (n = 5)) was 5 (100%). For the same compound, the “Fatigue, related: subjects” value ([1]; s.c. single dose 60 mg (n = 5)) was 0, the “Headache, related: subjects” value ([1]; s.c. single dose 60 mg (n = 5)) was 0 and the “Hematoma, related: subjects” value ([1]; s.c. single dose 60 mg (n = 5)) was 0. The “Induration, related: subjects” value ([1]; s.c. single dose 60 mg (n = 5)) was 1 (20%), the “Local AEs, related: subjects with at least 1 AE” value ([1]; s.c. single dose 60 mg (n = 5)) was 5 (100%) and the “Other local AEs, related: subjects” value ([1]; s.c. single dose 60 mg (n = 5)) was 0. For the same compound, the “Other systemic AEs, related: subjects” value ([1]; s.c. single dose 60 mg (n = 5)) was 0, the “Pain with touching, related: subjects” value ([1]; s.c. single dose 60 mg (n = 5)) was 0 and the “Pain without touching, related: subjects” value ([1]; s.c. single dose 60 mg (n = 5)) was 0. The “Swelling, related: subjects” value ([1]; s.c. single dose 60 mg (n = 5)) was 0, the “Systemic AEs, related: subjects with at least 1 AE” value ([1]; s.c. single dose 60 mg (n = 5)) was 0 and the “All AEs, related: subjects” value ([1]; s.c. single dose 90 mg (n = 5)) was 5 (100%). For the same compound, the “Erythema, related: subjects” value ([1]; s.c. single dose 90 mg (n = 5)) was 5 (100%), the “Fatigue, related: subjects” value ([1]; s.c. single dose 90 mg (n = 5)) was 0 and the “Headache, related: subjects” value ([1]; s.c. single dose 90 mg (n = 5)) was 0. For the same compound, the “Hematoma, related: subjects” value ([1]; s.c. single dose 90 mg (n = 5)) was 1 (20%), the “Induration, related: subjects” value ([1]; s.c. single dose 90 mg (n = 5)) was 0 and the “Local AEs, related: subjects with at least 1 AE” value ([1]; s.c. single dose 90 mg (n = 5)) was 5 (100%). The “Other local AEs, related: subjects” value ([1]; s.c. single dose 90 mg (n = 5)) was 0, the “Other systemic AEs, related: subjects” value ([1]; s.c. single dose 90 mg (n = 5)) was 0 and the “Pain with touching, related: subjects” value ([1]; s.c. single dose 90 mg (n = 5)) was 0. For the same compound, the “Pain without touching, related: subjects” value ([1]; s.c. single dose 90 mg (n = 5)) was 0, the “Swelling, related: subjects” value ([1]; s.c. single dose 90 mg (n = 5)) was 1 (20%) and the “Systemic AEs, related: subjects with at least 1 AE” value ([1]; s.c. single dose 90 mg (n = 5)) was 0. The “All AEs, related: subjects” value [1, 3] was 5 (100%), the “Erythema, related: subjects” value [1, 3] was 4 (80%) and the “Fatigue, related: subjects” value [1, 3] was 0. The “Headache, related: subjects” value [1, 3] was 1 (20%), the “Hematoma, related: subjects” value [1, 3] was 1 (20%) and the “Induration, related: subjects” value [1, 3] was 2 (40%). For the same compound, the “Local AEs, related: subjects with at least 1 AE” value [1, 3] was 4 (80%), the “Other local AEs (burning sensation at the injection site), related: subjects with at least 1 AE” value [1, 3] was 1 (20%) and the “Other systemic AEs, related: subjects” value [1, 3] was 0. For the same compound, the “Pain with touching, related: subjects” value [1, 3] was 0, the “Pain without touching, related: subjects” value [1, 3] was 0 and the “Swelling, related: subjects” value [1, 3] was 0. The “Systemic AEs, related: subjects with at least 1 AE” value [1, 3] was 1 (20%) and the “No observed adverse effects level” value [2] was 30 mg/kg.
